Patent US20230203059A1, “MACROCYCLIC JAK INHIBITOR AND USES THEREOF” (Biopolar Hongye (Guangdong) Pharmaceutical Co. Ltd., priority 2020, published 2023)

Assays:
Assay type in all cases: biochemical
[1] = molecular target: JAK2 (Homo sapiens, UniProt O60674); experiment: JAK kinase activity, homogeneous time-resolved fluorescence (JAK2 reaction system); settings: ATP 2 μM, JAK2 protein 0.01 ng/μL
Outline: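 IC50 derived by Hill-equation fit of the 665/615 nm time-resolved fluorescence ratio after EDTA-containing detection mix with anti-phosphosubstrate antibody. Preceding 1 h reaction contained 2 μM ATP, 0.01 ng/μL JAK2, substrate, 50 mM Hepes pH 7.0, 5 mM MgCl2, 1 mM DTT.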

[2] = molecular target: T1, JAK3 (Homo sapiens, UniProt P52333); experiment: JAK kinase activity, homogeneous time-resolved fluorescence (JAK3 reaction system); settings: ATP 2 μM, JAK3 protein 0.04 ng/μL; read-out: JAK 3 activity
T1 sequence (P52333 1-1124): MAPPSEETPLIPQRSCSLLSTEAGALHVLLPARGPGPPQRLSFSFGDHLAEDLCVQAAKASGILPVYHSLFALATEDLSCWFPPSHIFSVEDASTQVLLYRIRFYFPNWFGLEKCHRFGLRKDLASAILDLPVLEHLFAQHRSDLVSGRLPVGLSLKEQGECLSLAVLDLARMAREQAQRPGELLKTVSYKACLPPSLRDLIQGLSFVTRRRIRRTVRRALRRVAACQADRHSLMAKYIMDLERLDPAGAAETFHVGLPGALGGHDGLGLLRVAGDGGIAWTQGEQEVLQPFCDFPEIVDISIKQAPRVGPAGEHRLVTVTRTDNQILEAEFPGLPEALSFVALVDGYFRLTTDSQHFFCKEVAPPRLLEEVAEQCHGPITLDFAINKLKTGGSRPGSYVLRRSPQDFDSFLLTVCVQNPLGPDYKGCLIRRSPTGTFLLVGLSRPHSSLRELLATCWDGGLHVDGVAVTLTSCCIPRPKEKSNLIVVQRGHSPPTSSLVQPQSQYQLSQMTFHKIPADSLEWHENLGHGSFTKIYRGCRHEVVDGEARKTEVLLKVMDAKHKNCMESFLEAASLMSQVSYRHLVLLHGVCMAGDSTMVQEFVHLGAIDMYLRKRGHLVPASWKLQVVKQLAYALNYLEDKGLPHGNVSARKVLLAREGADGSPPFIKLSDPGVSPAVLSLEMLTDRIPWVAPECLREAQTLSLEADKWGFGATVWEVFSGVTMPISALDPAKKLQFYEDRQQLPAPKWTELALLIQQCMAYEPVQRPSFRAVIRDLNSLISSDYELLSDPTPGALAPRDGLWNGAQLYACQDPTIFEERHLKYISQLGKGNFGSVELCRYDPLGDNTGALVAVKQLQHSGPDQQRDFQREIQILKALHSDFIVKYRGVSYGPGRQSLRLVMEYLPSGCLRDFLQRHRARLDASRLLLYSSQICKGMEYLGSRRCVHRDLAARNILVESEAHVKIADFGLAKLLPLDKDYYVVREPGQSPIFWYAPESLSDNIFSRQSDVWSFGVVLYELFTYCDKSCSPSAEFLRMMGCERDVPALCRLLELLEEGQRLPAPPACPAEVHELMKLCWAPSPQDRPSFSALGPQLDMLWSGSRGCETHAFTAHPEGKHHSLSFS

[3] = molecular target: JAK1 (Homo sapiens, UniProt P23458); experiment: JAK kinase activity, homogeneous time-resolved fluorescence (JAK1 reaction system); settings: ATP 2 μM, JAK1 protein 0.2 ng/μL; read-out: JAK 1 activity
Outline: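 HTRF assay: JAK1 (0.2 ng/μL) with 2 μM ATP and substrate in 50 mM Hepes pH 7.0, 5 mM MgCl2, 1 mM DTT, 1 h. Phospho-substrate antibody/XL-615 detection with EDTA; 665/615 nm ratio, excitation 320 nm. IC50 from Hill-type fit against no-enzyme and no-compound controls.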

[4] = molecular target: TYK2 (Homo sapiens, UniProt P29597); experiment: JAK kinase activity, homogeneous time-resolved fluorescence (TYK2 reaction system); settings: ATP 2 μM, TYK2 protein 0.2 ng/μL; read-out: TYK 2 activity
Outline: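 Activity read as the 665 nm/615 nm ratio after adding EDTA-containing detection mix with anti-phospho-substrate antibody and XL-615. Beforehand, 0.2 ng/μL TYK2, 2 μM ATP, substrate and compound reacted 1 h in pH 7.0 Hepes buffer with MgCl2 and DTT. IC50 fitted with Hill-slope equation.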

Sequence of TYK2 (P29597 whole entry): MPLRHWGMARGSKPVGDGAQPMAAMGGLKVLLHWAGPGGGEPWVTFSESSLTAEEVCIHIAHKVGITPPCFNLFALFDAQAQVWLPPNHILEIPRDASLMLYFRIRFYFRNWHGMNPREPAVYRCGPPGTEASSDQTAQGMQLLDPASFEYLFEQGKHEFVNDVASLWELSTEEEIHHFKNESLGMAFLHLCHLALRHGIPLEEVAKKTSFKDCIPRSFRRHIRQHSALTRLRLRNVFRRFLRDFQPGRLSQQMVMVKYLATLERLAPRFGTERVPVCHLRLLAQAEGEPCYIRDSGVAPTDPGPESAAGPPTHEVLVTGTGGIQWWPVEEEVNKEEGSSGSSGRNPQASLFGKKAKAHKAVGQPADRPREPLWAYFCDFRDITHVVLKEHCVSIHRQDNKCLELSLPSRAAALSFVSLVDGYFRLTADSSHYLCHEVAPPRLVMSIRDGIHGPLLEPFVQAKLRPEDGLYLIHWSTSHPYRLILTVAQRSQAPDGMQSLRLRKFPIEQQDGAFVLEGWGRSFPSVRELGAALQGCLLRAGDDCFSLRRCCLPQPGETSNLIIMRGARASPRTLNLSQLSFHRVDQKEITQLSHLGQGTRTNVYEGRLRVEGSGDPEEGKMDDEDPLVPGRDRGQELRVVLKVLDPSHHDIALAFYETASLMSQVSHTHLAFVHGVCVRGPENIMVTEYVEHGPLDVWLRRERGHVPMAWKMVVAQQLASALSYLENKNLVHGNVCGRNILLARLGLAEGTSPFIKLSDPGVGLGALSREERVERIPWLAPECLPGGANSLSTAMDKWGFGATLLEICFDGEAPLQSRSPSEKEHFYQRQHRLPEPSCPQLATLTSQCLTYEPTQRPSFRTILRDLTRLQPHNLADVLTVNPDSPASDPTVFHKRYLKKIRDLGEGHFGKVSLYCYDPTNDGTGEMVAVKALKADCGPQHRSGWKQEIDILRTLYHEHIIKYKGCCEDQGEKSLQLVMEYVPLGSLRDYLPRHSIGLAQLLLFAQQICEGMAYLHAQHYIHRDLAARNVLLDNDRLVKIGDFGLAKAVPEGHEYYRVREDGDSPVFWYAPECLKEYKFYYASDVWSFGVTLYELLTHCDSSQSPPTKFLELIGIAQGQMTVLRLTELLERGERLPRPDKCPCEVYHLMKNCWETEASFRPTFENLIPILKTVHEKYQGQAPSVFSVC
Sequence of JAK1 (P23458 whole entry): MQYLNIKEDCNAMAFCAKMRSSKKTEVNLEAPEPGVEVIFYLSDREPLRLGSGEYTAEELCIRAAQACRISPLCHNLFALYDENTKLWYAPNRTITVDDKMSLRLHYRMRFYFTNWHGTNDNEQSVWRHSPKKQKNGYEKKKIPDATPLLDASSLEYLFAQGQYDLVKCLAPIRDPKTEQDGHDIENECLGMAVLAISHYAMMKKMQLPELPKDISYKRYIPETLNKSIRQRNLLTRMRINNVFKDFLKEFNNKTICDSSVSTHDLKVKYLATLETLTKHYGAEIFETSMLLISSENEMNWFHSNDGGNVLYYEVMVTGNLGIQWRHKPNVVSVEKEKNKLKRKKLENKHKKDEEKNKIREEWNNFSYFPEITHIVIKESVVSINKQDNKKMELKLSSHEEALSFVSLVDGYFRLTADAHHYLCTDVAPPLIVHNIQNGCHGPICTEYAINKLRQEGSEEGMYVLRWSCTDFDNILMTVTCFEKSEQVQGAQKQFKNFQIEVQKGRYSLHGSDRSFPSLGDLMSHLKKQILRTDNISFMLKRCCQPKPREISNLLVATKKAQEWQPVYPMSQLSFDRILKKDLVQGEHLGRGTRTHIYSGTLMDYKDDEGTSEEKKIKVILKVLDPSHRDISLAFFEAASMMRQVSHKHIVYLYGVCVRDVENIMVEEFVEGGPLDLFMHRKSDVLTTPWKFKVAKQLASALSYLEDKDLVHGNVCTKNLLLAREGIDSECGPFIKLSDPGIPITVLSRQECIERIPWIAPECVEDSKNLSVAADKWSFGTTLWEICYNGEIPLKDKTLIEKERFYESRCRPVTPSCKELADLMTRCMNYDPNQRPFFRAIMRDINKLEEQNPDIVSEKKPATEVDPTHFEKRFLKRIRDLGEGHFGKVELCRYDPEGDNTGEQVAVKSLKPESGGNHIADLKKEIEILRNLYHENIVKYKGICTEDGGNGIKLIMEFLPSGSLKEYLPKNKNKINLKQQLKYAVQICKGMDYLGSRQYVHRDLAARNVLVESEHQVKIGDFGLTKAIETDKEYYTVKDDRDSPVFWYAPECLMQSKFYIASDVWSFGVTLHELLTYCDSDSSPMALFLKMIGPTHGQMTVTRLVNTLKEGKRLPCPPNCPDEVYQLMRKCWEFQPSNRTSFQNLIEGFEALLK
Sequence of JAK2 (O60674 whole entry): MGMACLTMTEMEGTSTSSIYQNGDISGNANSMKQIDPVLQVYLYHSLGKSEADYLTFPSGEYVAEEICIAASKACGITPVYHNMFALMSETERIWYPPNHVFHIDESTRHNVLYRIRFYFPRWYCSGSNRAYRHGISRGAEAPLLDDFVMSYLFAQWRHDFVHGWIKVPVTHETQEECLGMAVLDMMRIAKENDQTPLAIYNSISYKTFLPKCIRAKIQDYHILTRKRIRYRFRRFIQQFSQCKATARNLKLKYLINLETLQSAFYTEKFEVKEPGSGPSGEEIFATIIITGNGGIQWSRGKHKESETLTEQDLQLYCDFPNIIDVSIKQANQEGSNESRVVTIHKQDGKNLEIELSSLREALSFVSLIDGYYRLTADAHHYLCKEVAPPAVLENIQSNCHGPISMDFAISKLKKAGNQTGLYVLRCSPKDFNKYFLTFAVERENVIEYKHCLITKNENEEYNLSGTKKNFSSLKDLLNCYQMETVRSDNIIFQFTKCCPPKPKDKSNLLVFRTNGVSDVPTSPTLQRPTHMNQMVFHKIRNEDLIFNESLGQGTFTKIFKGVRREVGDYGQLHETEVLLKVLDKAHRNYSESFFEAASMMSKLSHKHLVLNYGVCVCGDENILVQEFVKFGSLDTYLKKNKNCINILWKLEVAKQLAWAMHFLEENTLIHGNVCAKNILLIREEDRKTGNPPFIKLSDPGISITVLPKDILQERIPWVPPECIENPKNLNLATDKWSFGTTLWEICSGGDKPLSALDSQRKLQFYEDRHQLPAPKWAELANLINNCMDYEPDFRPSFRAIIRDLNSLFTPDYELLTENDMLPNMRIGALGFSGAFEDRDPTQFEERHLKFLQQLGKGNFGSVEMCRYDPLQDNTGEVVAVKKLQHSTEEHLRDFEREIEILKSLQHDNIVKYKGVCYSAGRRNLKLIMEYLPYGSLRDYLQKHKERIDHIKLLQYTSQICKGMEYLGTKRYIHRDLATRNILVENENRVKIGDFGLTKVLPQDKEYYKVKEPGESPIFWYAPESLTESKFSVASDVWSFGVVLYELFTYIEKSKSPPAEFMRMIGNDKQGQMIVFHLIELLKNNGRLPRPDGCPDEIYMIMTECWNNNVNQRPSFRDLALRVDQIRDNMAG

Row | Compound | IC50 [1] [µM] | IC50 [2] [µM] | IC50 [3] [µM] | IC50 [4] [µM]
1 | O=C1Nc2ccc(cc2)OCc2cc(ccc2Oc2cccnc2)Nc2nccc(n2)-c2ccc1cc2[N+](=O)[O-] [Example 204, 1-nitro-4^4-(pyridin-3-oxy)-6-oxa-3,8-diaza-2(4,2)-pyrimidina-1,7(1,4),4(1,3)-tribenzenacyclononaphen-9-one] | > 10 | 1 to 10 | 1 to 10 | > 10
2 | CC1CCNC(=O)c2ccc(c([N+](=O)[O-])c2)-c2ccnc(n2)Nc2ccc(OCC3COC3)c(c2)COC1 (stereo not drawn) [Example 174, 8-methyl-1^2-nitro-4^4-(oxetan-3-yl-methoxy)-6-oxa-3-diaza-2(4,2)-py-rimidina-1(1,4),4(1,3)-dibenzena-cyclododecaphan-12-one] | 1 to 10 | 1 to 10 | 1 to 10 | > 10
3 | CC(C)COc1ccc2cc1COc1ccc(cc1)NC(=O)c1ccc(c(N)c1)-c1ccnc(n1)N2 [Example 202, 1^2-amino-4^4-isobutoxy-6-oxa-3,8-di-aza-2(4,2)-pyrimidina-1,7(1,4),4(1,3)-tribenzenacyclononaphane-9-one] | 1 to 10 | 0.011 to 0.1 | 1 to 10 | > 10
4 | O=C1Nc2ccc(cc2)OCc2cc(ccc2OC2CCCC2)Nc2nccc(n2)-c2ccc1cc2O [Example 215, 4^4-(cyclopentoxy)-1^2-hydroxy-6-oxa-3,8-diaza-2 (4,2)-pyrimidina-1,7(1,4),4(1,3)-tribenzenacyclononaphane-9-one] | 0.101 to 1 | 0.011 to 0.1 | 1 to 10 | 1 to 10
5 | O=C1Nc2ccc(cc2)OCc2cc(ccc2OC2CCCOC2)Nc2nccc(n2)-c2ccc1cc2[N+](=O)[O-] (stereo not drawn) [Example 203, 1^2-nitro-4^4-((tetrahydro-2H-pyran-3-yl)oxy)-6-oxa-3,8-diaza-2(4,2)-pyri-midina-1,7(1,4),4(1,3)-tribenzenacyclo-nonaphane-9-one] | 1 to 10 | 0.101 to 1 | 1 to 10 | > 10
6 | O=C1NCCCCOCc2cc(ccc2N2CCCCC2)Nc2nccc(n2)-c2ccc1cc2[N+](=O)[O-] [Example 48, 1^2-nitro-4^4-(piperidin-1-)-6-oxa-3,11-diaza-2(4,2)-pyrimidina-1(1,4),4(1,3)-dibenzenacyclododecaphan-12-one] | 1 to 10 | 0.101 to 1 | 1 to 10 | 1 to 10
7 | COc1ccc(F)cc1COc1ccc2cc1COCCCCNC(=O)c1ccc(c(N)c1)-c1ccnc(n1)N2 [Example 177, 1^2-amino-4^4-((5-fluoro-2-methoxy-benzyl)oxy)-6-oxa-3,11-diaza-2(4,2)-pyrimidina-1(1,4),4(1,3)-dibenz-enacyclododecaphan-12-one] | 1 to 10 | 0.101 to 1 | 1 to 10 | > 10
8 | COc1cc(F)cc(C#N)c1COc1ccc2cc1COCCCCNC(=O)c1ccc(c(N)c1)-c1ccnc(n1)N2 [Example 194, 2-(((1^2-amino-12-oxo-6-oxo-3,11-diaza-2(4,2)-pyrimidina-1(1,4),4(1,3)-dibenzenacyclododecaphan-4^4-yl)oxy)methyl)-5-fluoro-3-methoxy-benzonitrile] | 0.101 to 1 | 0.011 to 0.1 | 1 to 10 | > 10
9 | O=C1NCCCCOCc2cc(ccc2N2CCSCC2)Nc2nccc(n2)-c2ccc1cc2[N+](=O)[O-] [Example 65, 1^2-nitro-4^4-thiomorpholin-6-oxa-3,11-diaza-2(4,2)-pyrimidina-1(1,4),4(1,3)-dibenzenacyclododecaphan-12-one] | 1 to 10 | 1 to 10 | 1 to 10 | 1 to 10
10 | COc1cc(F)cc(Cl)c1COc1ccc2cc1COCCCCNC(=O)c1ccc(c(N)c1)-c1ccnc(n1)N2 [Example 195, 1^2-amino-4^4-((2-chloro-4-fluoro-6-methoxybenzyl)oxy)-6-oxa-3,11-diaza-2(4,2)-pyrimidina-1(1,4),4(1,3)-dibenzenacyclododecaphan-12-one] | 1 to 10 | 0.011 to 0.1 | 1 to 10 | 1 to 10
11 | CNc1cc2ccc1-c1ccnc(n1)Nc1ccc(OC(C)C)c(c1)COCCCCNC2=O [Example 86, 4^4-isopropoxy-1^2-methyalmino-6-o-xa-3,11-diaza-2(4,2)-pyrimidina-1(1,4),4(1,3)-dibenzenacyclododecaphan-12-one] | 1 to 10 | 0.101 to 1 | 1 to 10 | > 10
12 | CC(C)COc1ccc2cc1COCCCCNC(=O)c1ccc(c([N+](=O)[O-])c1)-c1ccnc(n1)N2 [Example 115, 4^4-isobutoxy-1^2-nitro-6-oxa-3,11-diaza-2(4,2)-pyrimidina-1(1,4),4(1,3)-dibenzenacyclododecaphan-12-one] | 1 to 10 | 0.101 to 1 | 1 to 10 | > 10
13 | O=C1NC2CCC(CC2)COCc2cc(ccc2N2CCOCC2)Nc2nccc(n2)-c2ccc1cc2 [Example 80, 4^4-morpholine-6-oxa-3,9-diaza-2(4,2)-pyrimidina-1(1,4),4(1,3)-dibenze-na-8(1,4)-cyclododecaphan-10-one] | 1 to 10 | 1 to 10 | 1 to 10 | > 10
14 | Cc1cc2ccc1-c1ccnc(n1)Nc1cc(cc(N3CCOCC3)c1)COCCCCNC2=O [Example 46, 1^2-methyl-4^4-morpholin-6-oxa-3,11-diaza-2(4,2)-pyrimidina-1(1,4),4(1,3)-dibenzenacyclododecaphan-12-one] | 0.101 to 1 | 0.011 to 0.1 | 1 to 10 | 1 to 10
15 | COc1cc(F)cc(F)c1COc1ccc2cc1COCC[C@@H](C)CNC(=O)c1ccc(c(N)c1)-c1ccnc(n1)N2 [Example 188, (R)-1^2-amino-4^4-((2,4-difluoro-6-methoxybenzyl)oxy)-9-methyl-6-o-xa-3,11-diaza-2(4,2)-pyrimidina-1(1,4),4(1,3)-dibenzenacyclo-dodecaphan-12-one] | 0.101 to 1 | 0.011 to 0.1 | 1 to 10 | 1 to 10
16 | Nc1cc2ccc1-c1ccnc(n1)Nc1ccc(N3CCOCC3)c(c1)COCCCCNC2=O [Example 31, 1^2-amino-4^4-morpholin-6-oxa-3,11-diaza-2(4,2)-pyrimidina-1(1,4),4(1,3)-dibenzenacyclododecaphan-12-one] | 0.011 to 0.1 | < 0.01 | 0.101 to 1 | 0.101 to 1
17 | CC1CCOCc2cc(ccc2OC2CC2)Nc2nccc(n2)-c2ccc(cc2N)C(=O)NC1 (stereo not drawn) [Example 157, 1^2-amino-4^4-cyclopropoxy-9-meth-yl-6-oxa-3,11-diaza-2(4,2)-pyrimi-dina-1(1,4),4(1,3)-dibenzenacyclo-dodecaphan-12-one] | 0.011 to 0.1 | < 0.01 | 0.101 to 1 | 0.101 to 1
18 | COc1cc(C#N)cc(F)c1COc1ccc2cc1COCCCCNC(=O)c1ccc(c(N)c1)-c1ccnc(n1)N2 [Example 196, 4-(((1^2-amino-12-oxo-6-oxa-3,11-diaza-2(4,2)-pyrimidina-1(1,4),4(1,3)-dibenzenacyclododecaphan-4^4-yl)oxy)methyl)-3-fluoro-5-methoxy-benzonitrile] | 0.101 to 1 | < 0.01 | 1 to 10 | 1 to 10
